# Laboratory results from patent publication US20100120690A1, “Polypeptides Having Antimicrobial Activity and Polynucleotides Encoding Same” (Novozymes Adenium Biotech A/S, priority 2005, published 2010).
# Tested on: panel of 6 different strains of Staphylococcus aureus
# Experiment: Average MIC, NCCLS/CLSI guidelines using caMHB (Example 6)
# Assay type: cell-based
# Conditions: average over 6 S. aureus strains, duplicate; MIC above 32 counted as 64; read after 18-24 hours at 37° C.
# Summary of the method: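 Six Staphylococcus aureus strains, MSSA and MRSA, were exposed in duplicate to peptide dilutions from 32 down to 0.03 microgram/mL in caMHB following CLSI guidance. Growth was scored after 18-24 h incubation at 37° C. The tabulated value is the mean MIC, with 64 used for any MIC >32 micrograms/mL.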
row,Sequence,Average MIC [micrograms/mL]
1,GFGCNGPWDEDDKQCHRHCKSIKGYKGGYCAKGGFVCKCYR [M13K + N17R + Y40YR],8
2,GFGCNGPWDEDDMLCHNHCKSIKGYKGGYCAKGGFVCKCY [Mutation Q14L],13
3,GFGCNGPWDEDDMQCHIHCKSIKGYKGGYCAKGGFVCKCY [Mutation N17I],14
4,GFGCNGPWDEDDMQCHNHCKSIKGYRGGYCAKGGFVCKCY [Mutation K26R],15
5,GFGCNGPWDEDDMRCHNHCKSIKGYRGGYCAKGGFVCKCY [Q14R + K26R],5
6,GFGCNGPWDEGDKQCHNHCKSIKGYRGGYCAKGGFVCKCYR [D11G + M13K + K26R + Y40YR],12
7,GFGCNGPWDEGDMQCHNHCKSIKGYRGGYCAKGGFVCKCY [D11G + K26R],11

# Tested on: B. subtilis
# Experiment: Minimal Inhibitory Concentration, NCCLS guidelines (Example 4)
# Assay type: cell-based, Bacillus subtilis
# Conditions: purified peptide
# Procedure: (§1) The Minimal Inhibitory Concentration (MIC, micrograms/mL) was determined to test for their antimicrobial activity following the NCCLS guidelines (Clinical and Laboratory Standards Institute; formerly known as National Committee for Clinical and Laboratory Standards).
row,Sequence,MIC against B. subtilis [micrograms/mL]
1,GFGCNGPWDEGDKQCHNHCKSIKGYRGGYCAKGGFVCKCYR [D11G + M13K + K26R + Y40YR],<0.03
2,GFGCNGPWDEGDMQCHNHCKSIKGYRGGYCAKGGFVCKCY [D11G + K26R],0.50

# Tested on: M. luteus
# Experiment: as above
# Assay type: cell-based, Micrococcus luteus
# Conditions: purified peptide
# Procedure: as §1
row,Sequence,MIC against M. luteus [micrograms/mL]
1,GFGCNGPWDEGDKQCHNHCKSIKGYRGGYCAKGGFVCKCYR [D11G + M13K + K26R + Y40YR],0.50
2,GFGCNGPWDEGDMQCHNHCKSIKGYRGGYCAKGGFVCKCY [D11G + K26R],8

# Tested on: S. aureus
# Experiment: as above
# Assay type: cell-based, Staphylococcus aureus
# Conditions: purified peptide
# Procedure: as §1
row,Sequence,MIC against S. aureus [micrograms/mL]
1,GFGCNGPWDEGDKQCHNHCKSIKGYRGGYCAKGGFVCKCYR [D11G + M13K + K26R + Y40YR],0.50
2,GFGCNGPWDEGDMQCHNHCKSIKGYRGGYCAKGGFVCKCY [D11G + K26R],2

# Tested on: Staphylococcus carnosus
# Experiment: TAPS (Trans Acting Peptide System) assay, radial diffusion read-out
# Assay type: cell-based
# Design: key: classified as 4>3>2>1; whereas 4 is better than 1; classified as 4>3>2>1; classified as 4>3>2>1; wildtype activity corresponds to 1
# Conditions: peptide expressed in E. coli
# Procedure: A range of antimicrobial polypeptides, which are variants of SEQ ID NO: 1, were tested in the TAPS assay. TAPS may be used to identify new or improved genes encoding peptides that can kill or inhibit the growth of target cells (see PCT application WO 2004/033715). The TAPS assay, an acronym for Trans Acting Peptide System, is based on having a sensitive host producing a peptide followed by screening for its activity in trans against an indicator strain. The advantage of this system is based on that the antimicrobial peptide is expressed in the Gram-negative bacterium E. coli and its antimicrobial activity can be monitored on different microbes including Gram-negatives, positives or fungi. Additionally, TAPS offers the possibility to produce correctly folded AMPs containing disulfide bonds in the host cells, thereby retaining their antimicrobial activities.
# The TAPS approach requires first, that expression of the peptide is under control of an inducible promoter with tight regulation, because the host cells are sensitive to the peptide when producing it. Secondly, the produced peptide has to be released to the media so that it can interact with the target organism.
# The TAPS screening can be carried out either in solid or liquid media. On solid media, a plasmid library is initially introduced into E. coli host cells. […] In the next step, the filter containing the colonies is transferred to LB growth medium containing inducer (0.1% arabinose) to permit peptide synthesis. Subsequently, the target strain, for example S. carnosus, is overlaid onto the plate and allowed to grow for 12-16 hours at 37° C. Finally, visual inspection of the host cells capable of reducing the proliferation of the target cells is performed and the nucleotide sequence encoding for the antimicrobial peptide is recovered from the host cells. DNA sequence analysis of the variants is obtained to elucidate the nature of the peptide.
# As mentioned above, the TAPS screening can also be performed using liquid medium. This procedure requires the use of robotics to analyze large number of clones. In this system, the host E. coli origami cells are transformed with the plasmid library and plated out on LB medium+0.2% glucose+ampicillin (200 mg/L). Independent colonies are then inoculated into 96 or 384-well plates containing 200 micro-L of TB medium+ampicillin (200 mg/L) and cultured overnight at 37° C. These cultures are then replicated robotically and grown to exponential phase until inducer (0.1% arabinose) is added to trigger peptide synthesis. The next step consists in hydrolyzing the cells such that the peptide is released to the media by hot acid hydrolysis. This treatment consists on adding 1 M sodium Phosphate buffer pH 2.3 to obtain a final pH approximately of 2.3 and incubating the cultures overnight at 80° C. Next day, a 25 micro-L aliquot of the hydrolyzed cultures is used to perform an activity test against the desired target organisms. The activity test performed was a Radial Diffusion Assay (RDA) where an aliquot of the hydrolyzed cultures was added to the agarose media inoculated with the target strain, S. carnosus. […] Measurements of the diameter of the clearing zones were performed to quantify the potency of the antimicrobial activity of the peptides.
# The antimicrobial activity (against Staphylococcus carnosus) of the tested plectasin variants, which was measured using the TAPS assay, is shown in table 3. The antimicrobial activity corresponds to the clearing zone size and has been classified as 4>3>2>1; whereas 4 is better than 1, and wildtype activity corresponds to 1.
row,Sequence,"Activity (antimicrobial activity, clearing zone size)"
1,GFGCNGPWDEDDKQCHRHCKSIKGYKGGYCAKGGFVCKCYR [M13K + N17R + Y40YR],3
2,GFGCNGPWDEDDMLCHNHCKSIKGYKGGYCAKGGFVCKCY [Mutation Q14L],4
3,GFGCNGPWDEDDMQCHIHCKSIKGYKGGYCAKGGFVCKCY [Mutation N17I],2
4,GFGCNGPWDEDDMQCHNHCKSIKGYRGGYCAKGGFVCKCY [Mutation K26R],3
5,GFGCNGPWDEDDMRCHNHCKSIKGYRGGYCAKGGFVCKCY [Q14R + K26R],4
6,GFGCNGPWDEGDKQCHNHCKSIKGYRGGYCAKGGFVCKCYR [D11G + M13K + K26R + Y40YR],4
7,GFGCNGPWDEGDMQCHNHCKSIKGYRGGYCAKGGFVCKCY [D11G + K26R],2
